Laboratory results reported in the CheMixHub viscosity set.

Assay: xn = mol fraction of the nth substance listed

CCCC[n+]1ccn(C)c1.N[C@@H](CCC(=O)O)C(=O)[O-] + CO
Details | viscosity [mPa·s]
313.15 K, 101 kPa, x1 = 0.7005 | 19.95

ClCCl + CO
303.15 K, 101.3 kPa
Details | viscosity [mPa·s]
x1 = 0.0146 | 0.5071
x2 = 0.0752 | 0.3905
x2 = 0.1326 | 0.3907
x2 = 0.1509 | 0.3917
x2 = 0.2315 | 0.3988
x2 = 0.3029 | 0.4078
x2 = 0.374 | 0.42
x2 = 0.407 | 0.4262
x2 = 0.5161 | 0.4475
x2 = 0.6525 | 0.4738
x2 = 0.7656 | 0.4932
x2 = 0.8581 | 0.5043
x2 = 0.9182 | 0.5081
x2 = 0.9595 | 0.5087

ClCCl + COC(=O)OC
viscosity [mPa·s], 101.33 kPa
Details | x2 = 0.0957 | x2 = 0.2018 | x2 = 0.3029 | x2 = 0.3958 | x2 = 0.5009 | x2 = 0.5996 | x2 = 0.6992 | x2 = 0.7599 | x2 = 0.9005
298.15 K | 0.4 | 0.423 | 0.441 | 0.458 | 0.472 | 0.485 | 0.495 | 0.5 | 0.52
303.15 K | 0.384 | 0.4 | 0.419 | 0.431 | 0.447 | 0.461 | 0.47 | 0.478 | 0.49
308.15 K | 0.374 | 0.385 | 0.399 | 0.409 | 0.42 | 0.43 | 0.44 | 0.448 | 0.461

ClCCl + COC(C)=O
298.15 K, 101 kPa
Details | viscosity [mPa·s]
x1 = 0.1033 | 0.374
x1 = 0.1903 | 0.383
x1 = 0.2995 | 0.391
x1 = 0.4016 | 0.398
x1 = 0.5007 | 0.404
x1 = 0.5991 | 0.41
x1 = 0.7017 | 0.414
x1 = 0.8034 | 0.416
x1 = 0.9104 | 0.418

ClCCCl + COCCO
298 K, 101.33 kPa
Details | viscosity [mPa·s]
x2 = 0.1031 | 0.803
x2 = 0.1362 | 0.811
x2 = 0.2067 | 0.83
x2 = 0.2908 | 0.882
x2 = 0.395 | 0.954
x2 = 0.5147 | 1.059
x2 = 0.5965 | 1.138
x2 = 0.6926 | 1.232
x2 = 0.7409 | 1.28
x2 = 0.9141 | 1.458

ClCCl + COCCO
298.15 K, 101 kPa
Details | viscosity [mPa·s]
x2 = 0.1103 | 0.5177
x2 = 0.2181 | 0.5832
x2 = 0.3235 | 0.6707
x2 = 0.4266 | 0.7669
x2 = 0.5274 | 0.8908
x2 = 0.626 | 1.029
x2 = 0.7225 | 1.168
x2 = 0.817 | 1.295
x2 = 0.9095 | 1.428

ClCCl + COCCOCCOC
298.15 K, 101.33 kPa
Details | viscosity [mPa·s]
x2 = 0.097 | 0.546
x2 = 0.1505 | 0.593
x2 = 0.2008 | 0.636
x2 = 0.2942 | 0.711
x2 = 0.3997 | 0.79
x2 = 0.4508 | 0.817
x2 = 0.5008 | 0.843
x2 = 0.5555 | 0.87
x2 = 0.598 | 0.891
x2 = 0.6948 | 0.921
x2 = 0.7543 | 0.938
x2 = 0.8003 | 0.955
x2 = 0.8967 | 0.975
x2 = 0.9205 | 0.98

ClCCl + COCCOCCOCCOCCOC
298.15 K, 101 kPa
Details | viscosity [mPa·s]
x2 = 0.017 | 0.459
x2 = 0.0332 | 0.51
x2 = 0.0557 | 0.586
x2 = 0.0844 | 0.681
x2 = 0.1417 | 0.909
x2 = 0.1831 | 1.075
x2 = 0.236 | 1.294
x2 = 0.2842 | 1.492
x2 = 0.292 | 1.519
x2 = 0.3401 | 1.699
x2 = 0.38 | 1.848
x2 = 0.4698 | 2.155
x2 = 0.5134 | 2.334
x2 = 0.6018 | 2.651
x2 = 0.6882 | 2.749
x2 = 0.7367 | 2.865
x2 = 0.8029 | 2.981
x2 = 0.8758 | 3.111
x2 = 0.9066 | 3.17
x2 = 0.9339 | 3.239

ClCCl + COc1ccccc1
303.15 K, 101.3 kPa
Details | viscosity [mPa·s]
x2 = 0.069 | 0.425
x2 = 0.321 | 0.527
x2 = 0.357 | 0.54
x2 = 0.4045 | 0.567
x2 = 0.6109 | 0.665
x2 = 0.658 | 0.688
x2 = 0.8807 | 0.82

O=S(=O)(O)O + COc1ccccc1
viscosity [mPa·s], 101 kPa
Details | x1 = 0.0892 | x1 = 0.2274 | x1 = 0.5064 | x1 = 0.6238 | x1 = 0.6321 | x1 = 0.6494 | x1 = 0.679 | x1 = 0.7207 | x1 = 0.746 | x1 = 0.9241
293.15 K | 1.46 | 3.17 | 41.69 | 260.3 | 172.8 | 263.5 | 317.9 | 262.1 | 201.3 | 34.68
303.15 K | 1.35 | 1.79 | 30.05 | 166 | 100.8 | 141.3 | 182 | 151.4 | 131.3 | 22.53
313.15 K | 1.25 | 2 | 23.8 | 87.9 | 70.2 | 79.44 | 105 | 83.3 | 71.9 | 16.6
323.15 K | 1.15 | 2.58 | 17.8 | 72.9 | 42.1 | 47.4 | 83.18 | 50.18 | 44.8 | 11.9

CC1CCCC(C)C1=O (stereo not drawn) + COc1ccccc1N
viscosity [mPa·s], 100 kPa
Details | x2 = 0.0997 | x2 = 0.1852 | x2 = 0.2554 | x2 = 0.3527 | x2 = 0.4551 | x2 = 0.5424 | x2 = 0.6519 | x2 = 0.7414 | x2 = 0.8479
303.15 K | 3.865 | 3.998 | 4.106 | 4.247 | 4.383 | 4.491 | 4.612 | 4.701 | 4.797
308.15 K | 3.412 | 3.557 | 3.673 | 3.825 | 3.972 | 4.09 | 4.227 | 4.325 | 4.435
313.15 K | 2.958 | 3.116 | 3.239 | 3.401 | 3.56 | 3.687 | 3.84 | 3.948 | 4.071

C1CCC2=[NH+]CCCN2CC1.c1c[n-]cn1 + CS(C)=O
298.15 K, 100 kPa
Details | viscosity [mPa·s]
x1 = 0.0998 | 3.113
x1 = 0.1996 | 4.415
x1 = 0.2995 | 6.054
x1 = 0.3994 | 8.104
x1 = 0.4994 | 10.52
x1 = 0.5994 | 13.65
x1 = 0.6995 | 17.39
x1 = 0.7996 | 22.07
x1 = 0.8998 | 27.44

CC(=O)O + CS(C)=O
viscosity [mPa·s]
Details | 298.15 K | 303.15 K | 308.15 K | 313.15 K | 318.15 K | 323.15 K
101 kPa, x2 = 0.2 | 2.359 | – | – | – | – | –
101 kPa, x2 = 0.4 | 2.806 | – | – | – | – | –
101 kPa, x2 = 0.6 | 2.525 | – | – | – | – | –
101 kPa, x2 = 0.8 | 2.231 | – | – | – | – | –
101.33 kPa, x1 = 0.0999 | – | 1.891 | 1.728 | 1.588 | 1.463 | 1.353
101.33 kPa, x1 = 0.199 | – | 1.975 | 1.803 | 1.655 | 1.525 | 1.411
101.33 kPa, x1 = 0.2973 | – | 2.082 | 1.898 | 1.738 | 1.605 | 1.482
101.33 kPa, x1 = 0.4013 | – | 2.265 | 2.06 | 1.884 | 1.732 | 1.59
101.33 kPa, x1 = 0.5005 | – | 2.383 | 2.165 | 1.975 | 1.809 | 1.664
101.33 kPa, x1 = 0.5997 | – | 2.46 | 2.223 | 2.024 | 1.848 | 1.695
101.33 kPa, x1 = 0.6966 | – | 2.374 | 2.148 | 1.946 | 1.78 | 1.628
101.33 kPa, x1 = 0.8068 | – | 2.05 | 1.857 | 1.694 | 1.549 | 1.425
101.33 kPa, x1 = 0.9006 | – | 1.601 | 1.464 | 1.345 | 1.241 | 1.149
101.33 kPa, x2 = 0.0978 | 1.755 | – | 1.458 | – | 1.229 | –
101.33 kPa, x2 = 0.1997 | 2.299 | – | 1.876 | – | 1.552 | –
101.33 kPa, x2 = 0.2991 | 2.631 | – | 2.142 | – | 1.762 | –
101.33 kPa, x2 = 0.4069 | 2.728 | – | 2.228 | – | 1.84 | –
101.33 kPa, x2 = 0.5247 | 2.661 | – | 2.17 | – | 1.784 | –
101.33 kPa, x2 = 0.6036 | 2.465 | – | 2.034 | – | 1.694 | –
101.33 kPa, x2 = 0.7038 | 2.303 | – | 1.91 | – | 1.591 | –
101.33 kPa, x2 = 0.804 | 2.178 | – | 1.804 | – | 1.507 | –
101.33 kPa, x2 = 0.903 | 2.081 | – | 1.733 | – | 1.443 | –

ClCCl + Cc1ccc(C)cc1
101 kPa
Details | viscosity [mPa·s]
293.15 K, x1 = 0.2949 | 0.59
293.15 K, x1 = 0.4409 | 0.561
293.15 K, x1 = 0.5522 | 0.535
293.15 K, x1 = 0.609 | 0.522
293.15 K, x1 = 0.6936 | 0.504
293.15 K, x1 = 0.7459 | 0.492
293.15 K, x1 = 0.8125 | 0.476
293.15 K, x1 = 0.8558 | 0.468
298.15 K, x1 = 0.2347 | 0.568
298.15 K, x1 = 0.3846 | 0.541
298.15 K, x1 = 0.4518 | 0.529
298.15 K, x1 = 0.5662 | 0.504
298.15 K, x1 = 0.6375 | 0.488
298.15 K, x1 = 0.6972 | 0.476
298.15 K, x1 = 0.7342 | 0.467
298.15 K, x1 = 0.7892 | 0.457
298.15 K, x1 = 0.8376 | 0.451
303.15 K, x1 = 0.2286 | 0.539
303.15 K, x1 = 0.3627 | 0.515
303.15 K, x1 = 0.4362 | 0.502
303.15 K, x1 = 0.5371 | 0.483
303.15 K, x1 = 0.624 | 0.463
303.15 K, x1 = 0.6948 | 0.448
303.15 K, x1 = 0.7643 | 0.433
303.15 K, x1 = 0.818 | 0.427
